In US10195254B2, “Myristoylated leptin-related peptides and uses thereof” (ALBANY MEDICAL COLLEGE, priority 2014, dated 2019):
Where two headings read alike, the source gives them in different places. Where a SMILES comes first, the peptide text is derived from it. Where no end group is shown, it is not given here. [ ]: non-standard residue; d: D form. The star is where a group is joined. Myristoyl = CCCCCCCCCCCCCC(=O)*

What was measured:
[1] = Body weight gain, food and water intake in STZ-induced hyperglycemic mice; assay type: in vivo, male Swiss Webster mice
Experimental: (§1) Streptozotocin (STZ)-induced male Swiss Webster mice were used in these studies to examine the effects of MA-[D-Leu-4]-OB3 on body weight gain and insulin sensitivity in an insulin-deficient mouse model of diabetes. Using this model, the insulin sensitizing effects of MA-[D-Leu-4]-OB3 was compared with those of another well-characterized insulin-sensitizing drug, metformin.
(§2) Seven-week old male Swiss Webster mice were rendered hyperglycemic with a single intraperitoneal (ip) dose of 150 mg/kg STZ. Fasting blood glucose levels were measured prior to STZ treatment to establish normal (non-diabetic) glucose levels, and every day thereafter to assess hyperglycemia. Fasting blood glucose levels were routinely 3- to 4-fold higher than normal 4-5 days after STZ treatment.
(§3) Detemir insulin (Levemir®, Novo Nordisk, Malov, Denmark) delivery pens were used to dispense 0.025 U/100 μL phosphate buffered saline (PBS), and delivered by subcutaneous (sc) injection twice daily between 8:00 and 9:00 a.m. and 4:00 and 5:00 p.m. for 14 days. MA-[D-Leu-4]-OB3 (NeoBiolab, Cambridge, Mass.) and metformin (Sigma Aldrich, St. Louis, Mo.) were dissolved in 0.3% dodecyl maltoside (DDM, Intravail®, Aegis Therapeutics, San Diego, Calif.) reconstituted in sterile deionized water, and delivered twice daily by oral gavage between 8:00 h and 9:00 h and 16:00 h and 17:00 h at a concentration of 5 mg/kg/100 μL or 100 mg/kg/100 uL, respectively, for 14 days.
(§4) On day zero and each day thereafter, food and water intake were measured, and the mice were weighed in the morning between 8:00 h and 9:00 h. To assure fasting (8 hour) glucose levels on the days blood glucose was measured, food was removed from the cages between 8:00 h and 9:00 h and replaced immediately after measurement.

[2] = tested on: STZ-induced hyperglycemic male Swiss Webster mice; assay: Fasting blood glucose in STZ-induced hyperglycemic mice; assay type: in vivo
Experimental: as §1, §2, §3, §4

[3] = tested on: male BKS.Cg-Dock7m+/+Leprdb/J diabetic db/db mice; assay: Fasting blood glucose in db/db mice after oral delivery in PBS or 0.3% DDM; assay type: in vivo; conditions: oral gavage once daily
Experimental: Studies comparing the effects of oral delivery of myristic acid-conjugated [D-Leu-4]-OB3 in PBS or 0.3% dodecyl maltoside (DDM, Intravail®) on fasting blood glucose in six to seven week-old male BKS.Cg-Dock7^m+/+Lepr^db/J diabetic db/db mice.
Male db/db mice were given increasing concentrations of MA-[D-Leu-4]-OB3 in either PBS or DDM orally by gavage once daily in the evening for 14 consecutive days. Fasting (8 hours) blood glucose levels were measured every other day using an Accu-Chek Nano glucose meter (Roche, Indianapolis, Ind.).

[4] = mouse, in vivo
Experimental: (§5) Three to four week-old male Swiss Webster mice weighing between 12 and 15 g were obtained from Charles River Laboratories (Troy, N.Y., USA). The animals were housed three per cage in polycarbonate cages fitted with stainless steel wire lids and air filters, and supported on ventilated racks (Thoren Caging Systems, Hazelton, Pa., USA) in the Albany Medical College Animal Resources Facility. The mice were maintained at a constant temperature (24° C.) with lights on from 07:00 to 19:00 h, and allowed food and water ad libitum until used for uptake studies.
(§6) For oral and intranasal delivery, MA-[D-Leu-4]-OB3 was dissolved in 0.3% Intravail® (Aegis Therapeutics, San Diego, Calif., USA) reconstituted in sterile deionized water at a concentration of 0.1 mg/100 μL and 0.1 mg/10 μL, respectively. At time zero (0), a single 200 μl SC, IM, or IP injection of mouse MA-[D-Leu-4]-OB3 was given to each of three mice per time point. Intranasal delivery was achieved by lightly anesthetizing the mice with isoflurane (1-4%) and delivering 10 μl of MA-[D-Leu-4]OB3 into the nares using a Gilson® P-20 pipettor. Following peptide administration, the mice were transferred to separate cages for the designated time period.
(§7) One, two, four, six, 18, and 24 h after peptide delivery, the mice were anesthetized with isoflurane (5%) and exsanguinated by cardiac puncture. The blood was collected in sterile non-heparinized plastic centrifuge tubes and allowed to stand at room temperature for 1 h. The clotted blood was rimmed from the walls of the tubes with sterile wooden applicator sticks. Individual serum samples were prepared by centrifugation for 30 min at 2600×g in an Eppendorf 5702R, A-4-38 rotor (Eppendorf North America, Westbury, N.Y., USA), pooled by time point, and stored frozen until assayed for MA-[D-Leu-4]OB3 content.
(§8) MA-[D-Leu-4]-OB3 concentrations in the pooled serum samples were measured with a competitive ELISA, developed and validated by the present inventors, with the following modification: MA-[D-Leu-4]-OB3 was used to construct the standard curve. Cross-reactivity of MA-[D-Leu-4]-OB3 with the polyclonal antibody to [D-Leu-4]-OB3 used in the ELISA was 100%. Each serum sample was assayed in duplicate. Intra- and inter-assay coefficients of variation were 0.03% and 0.2%, respectively.
(§9) Serum concentrations of MA-[D-Leu-4]OB3 vs. time following SC, IP, IM, oral, or intranasal delivery were plotted using the graphics program SigmaPlot 8.0 (SPSS Science, Chicago, Ill., USA). The area under each curve (AUC) was calculated with a function of this program, and expressed as ng/ml/min.
(§10) The period of time required for the serum concentration of MA-[D-Leu-4]OB3 to be reduced to exactly one-half of the maximum concentration achieved following IP, SC, IM, oral, and intranasal administration was calculated using the following formula: t1/2=0.693/kelim
(§11) where kelim represents the elimination constant, determined by plotting the natural log of each of the concentration points in the beta phase of the uptake profiles against time.

[5] = mouse, in vivo; remark: listed apart in the source
Experimental: as §5, §6, §7, §8, §9, §10, §11

[6] = in vivo, cited from earlier work

Which “heavier at the end of the 14-day test period (body weight gain)” value [1] does the source give for `CCCCCCCCCCCCCC(=O)N[C@@H](CO)C(=O)N[C@@H](CS)C(=O)N[C@@H](CO)C(=O)N[C@H](CC(C)C)C(=O)N1CCC[C@H]1C(=O)N[C@@H](CCC(N)=O)C(=O)N[C@H](C(N)=O)[C@@H](C)O` [MA-[D-Leu-4]-OB3] (Myristoyl-SCS[dL]PQT-NH2) here?
Its value is 8.1%.

And the Cumulative food intake ([1]; 14 days)?
The Cumulative food intake was 103.3 ± 2.3 gm/mouse.

And the Cumulative water intake ([1]; 14 days)?
The Cumulative water intake was 452.5 ± 6.4 mL/mouse.

What about the “body weight % of initial” value ([1]; after 14 days) of the same molecule?
The value was 108.1%.

What about the “body weight Change” value ([1]; after 14 days) of the same molecule?
Its value is “+2.0 gm”.

What about the Final body weight ([1]; after 14 days twice daily: MA-[D-Leu-4]-OB3 5 mg/kg oral, metformin 100 mg/kg oral, insulin 0.025 U sc) of the same molecule?
The Final body weight was 26.8 ± 1.6 gm.

What about the Initial body weight ([1]; baseline, STZ mice) of the same molecule?
The Initial body weight was 24.8 ± 1.4 gm.

And the “effect on fasting blood glucose levels” value ([2]; 14 day study, combination: within two days and throughout the study)?
Its value is “very little effect”.

And the “blood glucose % of initial” value ([2]; after 14 days)?
The value was 98.8%.

What about the “blood glucose Change” value ([2]; after 14 days) of the same molecule?
Its value is -6 mg/dL.

What about the Initial blood glucose ([2]; baseline, fasting) of the same molecule?
Its Initial blood glucose is 507.0 ± 6.0 mg/dL.

And the “reduction of fasting blood glucose levels” value ([2]; end of 14-day test period versus beginning)?
Its value is 1.2%.

And the Final blood glucose ([2]; fasting, after 14 days twice daily: MA-[D-Leu-4]-OB3 5 mg/kg oral, metformin 100 mg/kg oral, insulin 0.025 U sc)?
Its Final blood glucose is 501.0 ± 12.3 mg/dL.

What about the “times more effective than metformin in improving insulin sensitivity” value ([2]; on a mass basis, 10 mg/kg/day vs. 200 mg/kg/day) of the same molecule?
Its value is 20 times.

And the “times more effective than metformin in improving insulin sensitivity” value ([2]; on a molar basis)?
The value was 6.1 times.

And the “fasting blood glucose levels” value ([3]; 100 or 250 mcg/day in 0.3% DDM, 14 days)?
Its value is “significantly reduced”.

And the “fasting blood glucose levels” value ([3]; 250 mcg/day in 0.3% DDM, end of 14-day treatment)?
The value was “reduced to levels seen in non-diabetic BKS mice”.

And the “fasting blood glucose levels” value ([3]; 250 or 500 mcg/day in PBS, after 14 days)?
Its value is “unchanged from those in control mice receiving PBS alone”.

What about the period of absorption [4] of the same molecule?
The period of absorption was 2 to 6 h.

What about the relative bioavailability [4] of the same molecule?
Its relative bioavailability is 5.3.

And the “Plasma CL” value ([4]; im, 0.1 mg)?
The value was 0.12 mL/min.

And the clearance ([4]; im, 0.1 mg)?
Its clearance is 0.12 mL/min.

And the t1/2 ([4]; im, 0.1 mg)?
Its t1/2 is 5.9 h.

What about the “reduction of Cmax” value ([4]; inhaled or intranasal) of the same molecule?
The value was 80%.

What about the relative bioavailability ([4]; inhaled or intranasal) of the same molecule?
The relative bioavailability was 1.0.

And the “Plasma CL” value ([4]; inhaled or intranasal, 0.1 mg)?
Its value is 0.63 mL/min.

What about the Vd ([4]; inhaled or intranasal, 0.1 mg) of the same molecule?
Its Vd is 447.0 mL.

What about the clearance ([4]; inhaled or intranasal, 0.1 mg) of the same molecule?
Its clearance is 0.63 mL/min.

What about the relative bioavailability ([4]; ip) of the same molecule?
Its relative bioavailability is 7.7.

And the “Clearance from the plasma” value ([4]; ip, 0.1 mg)?
The value was 0.08 mL/min.

What about the Vd ([4]; ip, 0.1 mg) of the same molecule?
The Vd was 30.9 mL.

What about the clearance ([4]; ip, 0.1 mg) of the same molecule?
Its clearance is 0.0798 mL/min.

What about the t1/2 ([4]; ip, 0.1 mg) of the same molecule?
The t1/2 was 4.5 h.

What about the “reduction of Cmax” value ([4]; po) of the same molecule?
The value was 31%.

And the relative bioavailability ([4]; po)?
Its relative bioavailability is 1.8.

And the “Plasma CL” value ([4]; po, 0.1 mg)?
Its value is 0.36 mL/min.

And the Vd ([4]; po, 0.1 mg)?
Its Vd is 900.8 mL.

And the clearance ([4]; po, 0.1 mg)?
Its clearance is 0.36 mL/min.

And the relative bioavailability ([4]; sc)?
Its relative bioavailability is 11.7.

And the “Plasma CL” value ([4]; sc, 0.1 mg)?
Its value is 0.05 mL/min.

And the Vd ([4]; sc, 0.1 mg)?
Its Vd is 8.6 mL.

And the clearance ([4]; sc, 0.1 mg)?
Its clearance is 0.05 mL/min.

What about the half-life ([5]; half-life) of the same molecule?
Its half-life is at most 28 h.

What about the AUC ([5]; im, 0.1 mg) of the same molecule?
The AUC was 842 µg·h/mL.

And the Cmax ([5]; im, 0.1 mg)?
Its Cmax is 89800 ng/mL.

And the Tmax ([5]; im, 0.1 mg)?
Its Tmax is 2 h.

What about the half-life ([5]; im, 0.1 mg, t1/2) of the same molecule?
Its half-life is 5.5 h.

What about the AUC ([5]; inhaled or intranasal, 0.1 mg) of the same molecule?
The AUC was 158 µg·h/mL.

What about the Cmax ([5]; inhaled or intranasal, 0.1 mg) of the same molecule?
The Cmax was 10000 ng/mL.

What about the Tmax ([5]; inhaled or intranasal, 0.1 mg) of the same molecule?
The Tmax was 6 h.

What about the half-life ([5]; inhaled or intranasal, 0.1 mg, t1/2) of the same molecule?
Its half-life is 8.2 h.

What about the AUC ([5]; ip, 0.1 mg) of the same molecule?
The AUC was 1210 µg·h/mL.

What about the Tmax ([5]; ip, 0.1 mg) of the same molecule?
Its Tmax is 2 h.

What about the half-life ([5]; ip, 0.1 mg, t1/2) of the same molecule?
The half-life was 4.1 h.

What about the AUC ([5]; po, 0.1 mg) of the same molecule?
The AUC was 278 µg·h/mL.

What about the Cmax ([5]; po, 0.1 mg) of the same molecule?
The Cmax was 14400 ng/mL.

And the Tmax ([5]; po, 0.1 mg)?
The Tmax was 4 h.

And the half-life ([5]; po, 0.1 mg, t1/2)?
The half-life was 28.9 h.

And the AUC ([5]; sc, 0.1 mg)?
Its AUC is 1830 µg·h/mL.

What about the Tmax ([5]; sc, 0.1 mg) of the same molecule?
The Tmax was 2 h.

What about the half-life ([5]; sc, 0.1 mg, t1/2) of the same molecule?
Its half-life is 2 h.

With “[D-Leu-4]-OB3: synthetic peptide amide with leptin-like activity that has the sequence SCSLPQT (SEQ ID NO:1); non-myristoylated comparator (SCS[dL]PQT-NH2)” as the molecule, how does the AUC ([6]; im, 1 mg) read?
Its AUC is 1,481,060 ng/ml/min.

What about the Cmax ([6]; im, 1 mg) of the same molecule?
The Cmax was 46,566 ng/ml.

And the “Plasma CL” value ([6]; im, 1 mg)?
Its value is 0.68 mL/min.

What about the Tmax ([6]; im, 1 mg) of the same molecule?
Its Tmax is 0.083 h.

What about the Vd ([6]; im, 1 mg) of the same molecule?
Its Vd is 29.4 mL.

And the t1/2 ([6]; im, 1 mg)?
The t1/2 was 0.6 h.

And the AUC ([6]; inhaled or intranasal, 1 mg)?
The AUC was 4,336,963 ng/ml/min.

And the “Plasma CL” value ([6]; inhaled or intranasal, 1 mg)?
Its value is 1.37 mL/min.

What about the Vd ([6]; inhaled or intranasal, 1 mg) of the same molecule?
The Vd was 15.4 mL.

And the t1/2 ([6]; inhaled or intranasal, 1 mg)?
The t1/2 was 0.683 h.

And the AUC ([6]; ip, 1 mg)?
The AUC was 1,072,270 ng/ml/min.

And the Cmax ([6]; ip, 1 mg)?
The Cmax was 22,519 ng/ml.

What about the Tmax ([6]; ip, 1 mg) of the same molecule?
Its Tmax is 0.083 h.

And the Vd ([6]; ip, 1 mg)?
Its Vd is 65.5 mL.

What about the clearance ([6]; ip, 1 mg) of the same molecule?
Its clearance is 0.93 mL/min.

What about the t1/2 ([6]; ip, 1 mg) of the same molecule?
Its t1/2 is 0.817 h.

And the AUC ([6]; po, 1 mg)?
The AUC was 552,710 ng/ml/min.

And the Cmax ([6]; po, 1 mg)?
The Cmax was 8,574 ng/ml.

And the “Plasma CL” value ([6]; po, 1 mg)?
The value was 1.81 mL/min.

What about the Tmax ([6]; po, 1 mg) of the same molecule?
The Tmax was 0.833 h.

And the Vd ([6]; po, 1 mg)?
Its Vd is 47.9 mL.

What about the t1/2 ([6]; po, 1 mg) of the same molecule?
Its t1/2 is 0.333 h.

And the AUC ([6]; sc, 1 mg)?
Its AUC is 1,182,498 ng/ml/min.

And the Cmax ([6]; sc, 1 mg)?
Its Cmax is 35,063 ng/ml.

What about the “Plasma CL” value ([6]; sc, 1 mg) of the same molecule?
The value was 0.85 mL/min.

And the Tmax ([6]; sc, 1 mg)?
The Tmax was 0.083 h.

What about the Vd ([6]; sc, 1 mg) of the same molecule?
The Vd was 42.9 mL.

And the t1/2 ([6]; sc, 1 mg)?
The t1/2 was 0.567 h.

What about the period of absorption [6] of the same molecule?
The period of absorption was 5 to 60 min.
